Data on 53 compounds can be found in PubChem BioAssay AID1996.

Usually kinetic solubility stands for the concentration staying in solution when a stock, usually in DMSO, is diluted into the medium.

In brackets after ≈: the same amount, converted by molar mass.

The conditions of the data set: buffer; pH 7.4; 200.0 µM.
With `CCOC(=O)CCNC(=O)N1CCCC(CNS(=O)(=O)c2cccs2)C1` (stereo not drawn), the kinetic solubility was more than 60.5 µg/mL.

For the compound `N#Cc1cnc(Oc2ccc(Cl)cc2)nc1N`, the solubility (kinetic) came out at 4.3 µg/mL (≈ 17.4 µM). `Cc1ccc(-n2sc3ccccc3c2=O)cc1` returned a kinetic solubility of 9.2 µg/mL (≈ 38.1 µM). Turning to `O=C(NCC(c1ccco1)N1CCOCC1)c1c(F)cccc1F` (stereo not drawn), the solubility (kinetic) is more than 50.5 µg/mL. As to `Cc1nc(N)[nH]c(=O)c1CC(=O)OCCCl`, the kinetic solubility turned out to be 30.4 µg/mL (≈ 124 µM).

In turn, `Cc1cc(C)[n+](Cc2ccccc2)cc1C(N)=O.[Cl-]` displayed a solubility (kinetic) of more than 41.5 µg/mL. Consider `CCN(CC)S(=O)(=O)c1ccc(C(=O)NC2=NCCS2)cc1`, for which the kinetic solubility is 2.3 µg/mL (≈ 6.74 µM). `COc1ccccc1CNC(=O)Cc1ccc(OC)c(OC)c1`: the kinetic solubility is more than 47.3 µg/mL. Compound `O=C(CNC(=O)C1COc2ccccc2O1)Nc1ccc(F)c(F)c1` (stereo not drawn) had a kinetic solubility of 18.3 µg/mL (≈ 52.5 µM). With `Cc1ccc(C(=O)C(C)OC(=O)c2ccc(Cl)nc2)cc1` (stereo not drawn), the kinetic solubility is 34.1 µg/mL (≈ 112 µM). Then `COc1ccc(/C=C/C(=O)OCC(=O)N2CCCC2)c(OC)c1`, with more than 47.9 µg/mL; and `O=C(NCCCc1nc2ccccc2[nH]1)c1ccc(F)cc1`, with more than 44.6 µg/mL. For the compound `CNC(=S)NCc1ccc2[nH]c(C)cc2c1`, the kinetic solubility was more than 35 µg/mL. The result for `COc1ccc(-c2cn3cc([N+](=O)[O-])ccc3n2)cc1OC` reads 16.6 µg/mL (≈ 55.5 µM); that for `O=S(=O)(Nc1ccc(Cl)cn1)c1ccc(F)cc1`, more than 43 µg/mL; that for `Cc1ccc(C)c(C(=O)COC(=O)CN2C(=O)C3C4CCC(C4)C3C2=O)c1` (stereo not drawn), more than 55.4 µg/mL.

As to `O=C(NCC1CCCO1)c1cccc(Oc2ccccc2)c1` (stereo not drawn), the kinetic solubility worked out at 40.1 µg/mL (≈ 135 µM). For `Cc1nc(-c2noc(-c3ccc(Cl)cc3)n2)c(C(F)(F)F)o1`, the kinetic solubility was less than 0.2 µg/mL. Take `CCOc1ccccc1NC(=O)c1ccc2nc[nH]c2c1`: the kinetic solubility is more than 42.2 µg/mL. Turning to `COc1ccc(OC)c(N=Cc2c(O)c3ccccc3oc2=O)c1`, the solubility (kinetic) stood at 3.6 µg/mL (≈ 11.1 µM).

`CN(CCOc1ccccc1)CC(=O)Nc1cccc(C#N)c1` had a kinetic solubility of 43 µg/mL (≈ 139 µM). Turning to `NS(=O)(=O)c1cccc(C(=O)OCC(=O)NC2CCCc3ccccc32)c1` (stereo not drawn), the solubility (kinetic) came out at 21.6 µg/mL (≈ 55.6 µM).

In turn, `COc1ccc(NC(=O)Nc2ccc(F)cc2)cn1` yielded a solubility (kinetic) of more than 39.2 µg/mL.

Turning to `O=Cc1c(Nc2ccccc2Cl)nc2ccccn2c1=O`, the kinetic solubility was less than 0.2 µg/mL. Then `Cc1ccc(OC(=O)c2cccnc2)cc1`, with 22.5 µg/mL (≈ 106 µM). For `C=CCn1c(O)c(N=O)c2cc(C)ccc21`, the kinetic solubility is more than 32.4 µg/mL. Turning to `O=C(NCC1CCCO1)c1cc(-c2ccccc2)nc2ccccc12` (stereo not drawn), the kinetic solubility is more than 49.9 µg/mL.

`CCC(C)[C@H](NC(=O)N1CCCCCC1)C(=O)OC` (stereo partly drawn) yielded a kinetic solubility of 1.2 µg/mL (≈ 4.44 µM). `Fc1ccc(Oc2ccnc(Cl)n2)c(Cl)c1`: the kinetic solubility stood at 16.9 µg/mL (≈ 65.2 µM). For the compound `CN(C)C(CNC(=O)c1c(F)cccc1Cl)c1ccco1` (stereo not drawn), the kinetic solubility is more than 46.6 µg/mL. On to `Cc1cc(C)c(S(=O)(=O)NCc2cccs2)cc1C`, for which the solubility (kinetic) was determined as 36.5 µg/mL (≈ 124 µM). In turn, `Cc1ccc(C)c(OCC(=O)Nc2ccccc2C(=O)NC2CC2)c1` came in with a solubility (kinetic) of 0.9 µg/mL (≈ 2.66 µM). In turn, `COc1ccc(OC)c(NC(=O)N2CCCc3ccccc32)c1` gave a kinetic solubility of 1.7 µg/mL (≈ 5.44 µM). Consider `Cn1c(SCC(=O)NC2CCCC2)nnc1-c1ccncc1`, for which the solubility (kinetic) is more than 47.6 µg/mL.

As for `Cc1ccc(C(=O)NCC(=O)O)o1`, the kinetic solubility came to 25.1 µg/mL (≈ 137 µM). `O=C(Nc1nc(-c2ccccn2)cs1)Nc1ccc(F)cc1F` yielded a solubility (kinetic) of 2.4 µg/mL (≈ 7.22 µM). This solubility kinetic is about 10-fold lower than that of the compound before. The compound `CC(=O)Nc1ccc(-c2cn3c(n2)SCC3)cc1` displayed a solubility (kinetic) of 34.4 µg/mL (≈ 133 µM). This solubility kinetic is about 14-fold higher than that of the compound before. `CSCC[C@H](NC(=O)NC1CCCC1)C(=O)O` displayed a kinetic solubility of more than 39.1 µg/mL. `CC(=O)Nc1ccc(C(=O)COC(=O)c2cccs2)c(F)c1` displayed a kinetic solubility of 9.6 µg/mL (≈ 29.9 µM). As for `Cc1ccccc1-c1nnc(SCC(=O)NC2CCS(=O)(=O)C2)n1C` (stereo not drawn), the kinetic solubility is more than 57.1 µg/mL. `Cc1sc2ncnc(SCC(=O)N3CCCC(C(F)(F)F)C3)c2c1C` (stereo not drawn): the solubility (kinetic) was determined as 2.7 µg/mL (≈ 6.93 µM). Regarding `O=C1c2ccc([N+](=O)[O-])cc2C(=O)N1c1ccc(Cl)cn1`, the kinetic solubility is more than 45.5 µg/mL. Compound `COc1cccc(NC(=O)COc2ccc3c(c2)CCC3)c1` came in with a solubility (kinetic) of 1.3 µg/mL (≈ 4.37 µM). As for `COc1cc2ccccc2cc1C(=O)N1CCN(c2ccccn2)CC1`, the kinetic solubility was more than 52.1 µg/mL.

`O=C(CSc1nccc(-c2cccs2)n1)Nc1ccccc1` yielded a kinetic solubility of 2.3 µg/mL (≈ 7.02 µM). Then `COc1cc(Cl)c(C)cc1NC(=O)CCNC(=O)c1ccco1`, with more than 50.5 µg/mL; and `CC(=O)Nc1nc(-c2ccc3c(c2)OCO3)cs1`, with 8.5 µg/mL (≈ 32.4 µM). In turn, `Cc1cc(C)c(NC(=S)N(C)C)cc1C` gave a kinetic solubility of more than 33.4 µg/mL.

Consider `COCCNC(=O)c1ccc2c(Cl)c3c(nc2c1)CCC3`, for which the kinetic solubility is more than 45.7 µg/mL. For `N#Cc1ccc(OCC(=O)NNC(=S)NC(=O)C2CC2)cc1`, the solubility (kinetic) was more than 47.8 µg/mL. For the compound `NS(=O)(=O)c1ccc(NC(=O)c2cc(Cl)sc2Cl)cc1`, the solubility (kinetic) turned out to be 15.4 µg/mL (≈ 43.8 µM).

In the case of `CC(C)N(Cc1ccccc1)C(=O)c1ccc2nsnc2c1`, the solubility (kinetic) stood at 38.2 µg/mL (≈ 123 µM). With `C=CCn1c(SCC(=O)Nc2sc3c(c2C#N)CCC(C)C3)nc2cc(C(=O)O)ccc2c1=O` (stereo not drawn), the kinetic solubility worked out at 15 µg/mL (≈ 30.3 µM).
